Assay results reported in patent US7928098B2, “Therapeutic and/or preventive agents for a sleep disorder” (Kyowa Hakko Kirin Co., Ltd., priority 2005, dated 2011).

melting point | SMILES
168 to 170 °C | O=C(CNC12CC3CC(CC(C3)C1)C2)Nc1nc(-c2ccco2)c(C(=O)C2CCOCC2)s1 [Compound 482, N-[4-(2-Furyl)-5-(tetrahydropyran-4-ylcarbonyl)thiazol-2-yl]-2-(adamantan-1-ylamino)acetamide]
213 to 218 °C | O=C(Nc1nc(-c2ccco2)c(C(=O)c2ccccn2)s1)c1ccc2snnc2c1 [Compound 152, N-[4-(2-Furyl)-5-(pyridin-2-ylcarbonyl)thiazol-2-yl]-1,2,3-benzothiadiazole-5-carboxamide]
222 to 225 °C | CN1CCC(OC(=O)Nc2nc(-c3ccco3)c(C(=O)c3ccccn3)s2)CC1 [Compound 162, 1-Methylpiperidine-4-yl N-[4-(2-furyl)-5-(pyridin-2-ylcarbonyl)thiazol-2-yl]carbamate]
166 to 167 °C | COCC(=O)c1sc(NC(=O)c2ccc(F)cc2)nc1-c1ccco1 [Compound 311, 4-Fluoro-N-[4-(2-furyl)-5-(methoxyacetyl)thiazol-2-yl]benzamide]
183 to 184 °C | O=C(CN1CCC(N2CCCC2)CC1)Nc1nc(-c2ccco2)c(C(=O)C2CCOCC2)s1 [Compound 456, N-[4-(2-Furyl)-5-(tetrahydropyran-4-ylcarbonyl)thiazol-2-yl]-2-[4-(1-pyrrolidinyl)piperidino]acetamide]
245 to 248 °C | Cc1cncc(C(=O)Nc2nc(-c3ccco3)c(C(=O)c3ccccn3)s2)c1 [Compound 131, N-[4-(2-Furyl)-5-(pyridin-2-ylcarbonyl)thiazol-2-yl]-5-methylpyridine-3-carboxamide]
146 to 147 °C | O=C(CN1CCCCC1)Nc1nc(-c2ccco2)c(C(=O)C2CCOCC2)s1 [Compound 447, N-[4-(2-Furyl)-5-(tetrahydropyran-4-ylcarbonyl)thiazol-2-yl]-2-piperidinoacetamide]
209 to 212 °C | Cc1ccc(C(=O)Nc2nc(-c3ccco3)c(C(=O)C3CCOCC3)s2)o1 [Compound 417, N-[4-(2-Furyl)-5-(tetrahydropyran-4-ylcarbonyl)thiazol-2-yl]-5-methylfuran-2-carboxamide]
105 to 109 °C | COC1CCC(C(=O)c2sc(NC(=O)c3ccc(C#N)cc3)nc2-c2ccco2)CC1 (stereo not drawn) [Compound 348, 4-Cyano-N-[4-(2-furyl)-5-(4-methoxycyclohexylcarbonyl)-thiazol-2-yl]benzamide]
170 to 180 °C (dec.) | O=C(Nc1nc(-c2ccco2)c(C(=O)c2ccccn2)s1)c1cc[nH]c(=O)c1 [Compound 139, N-[4-(2-Furyl)-5-(pyridin-2-ylcarbonyl)thiazol-2-yl]-2-oxo-1,2-dihydropyridine-4-carboxamide]
268 to 270 °C | O=C(Nc1nc(-c2ccco2)c(C(=O)C(F)(F)F)s1)c1ccncc1 [Compound 287, N-[4-(2-Furyl)-5-(trifluoroacetyl)thiazol-2-yl]pyridine-4-carboxamide]
188 to 191 °C | C[C@@H]1CN(CC(=O)Nc2nc(-c3ccco3)c(C(=O)c3ccccn3)s2)C[C@H](C)O1 [Compound 173, 2-(cis-2,6-Dimethylmorpholino)-N-[4-(2-furyl)-5-(pyridin-2-ylcarbonyl)thiazol-2-yl]acetamide]
184 to 188 °C | COc1ccc(C(=O)Nc2nc(-c3ccco3)c(C(=O)C3CCOCC3)s2)cc1 [Compound 368, N-[4-(2-Furyl)-5-(tetrahydropyran-4-ylcarbonyl)thiazol-2-yl]-4-methoxybenzamide]
220 to 232 °C (dec.) | COC1CCN(CC(=O)Nc2nc(-c3ccco3)c(C(=O)c3ccccn3)s2)CC1.Cl
221 to 222 °C | O=C(Nc1nc(-c2ccco2)c(C(=O)C2CCOCC2)s1)c1ccccc1 [Compound 362, N-[4-(2-Furyl)-5-(tetrahydropyran-4-ylcarbonyl)thiazol-2-yl]benzamide]
103 to 105 °C | COCCN(C)CC(=O)Nc1nc(-c2ccco2)c(C(=O)C2CCOCC2)s1 [Compound 439, N-[4-(2-Furyl)-5-(tetrahydropyran-4-ylcarbonyl)thiazol-2-yl]-2-[N-(2-methoxyethyl)-N-methylamino]acetamide]
168 to 170 °C | O=C(Nc1nc(-c2ccco2)c(C(=O)C2CCOCC2)s1)c1c(F)cccc1F [Compound 397, 2,6-Difluoro-N-[4-(2-furyl)-5-(tetrahydropyran-4-ylcarbonyl)thiazol-2-yl]benzamide]
108 to 115 °C | Cc1cc(C(=O)Nc2nc(-c3ccco3)c(C(=O)C3CCC(=O)CC3)s2)ccn1 [Compound 354, N-[4-(2-Furyl)-5-(4-oxocyclohexylcarbonyl)thiazol-2-yl]-2-methylpyridine-4-carboxamide]
175 to 178 °C | O=C(Nc1nc(-c2ccco2)c(C(=O)c2ccn(Cc3ccccc3)c2)s1)c1ccncc1 [Compound 263, N-[5-(1-Benzylpyrrol-3-ylcarbonyl)-4-(2-furyl)thiazol-2-yl]pyridine-4-carboxamide]
205 to 229 °C | Cc1cc(C(=O)Nc2nc(-c3ccco3)c(C(=O)c3ccnc(C)c3)s2)ccn1 [Compound 240, N-[4-(2-Furyl)-5-(2-methylpyridin-4-ylcarbonyl)thiazol-2-yl]-2-methylpyridine-4-carboxamide]

melting point | SMILES
223 to 225 °C | Cc1cc(C(=O)c2sc(NC(=O)c3ccncc3)nc2-c2ccco2)ccn1 [Compound 239, N-[4-(2-Furyl)-5-(2-methylpyridin-4-ylcarbonyl)thiazol-2-yl]pyridine-4-carboxamide]
206 to 209 °C | O=C(CC1CCOCC1)Nc1nc(-c2ccco2)c(C(=O)C2CCOCC2)s1 [Compound 430, N-[4-(2-Furyl)-5-(tetrahydropyran-4-ylcarbonyl)thiazol-2-yl]-2-(tetrahydropyran-4-yl)acetamide]
230 to 231 °C | CC(C)(O)c1cc2cc(C(=O)Nc3nc(-c4ccco4)c(C(=O)c4ccccn4)s3)ccc2o1 [Compound 155, N-[4-(2-Furyl)-5-(pyridin-2-ylcarbonyl)thiazol-2-yl]-2-(1-hydroxy-1-methylethyl)-1-benzofuran-5-carboxamide]
153 to 155 °C | O=C(CN1CCSC1)Nc1nc(-c2ccco2)c(C(=O)c2ccccn2)s1 [Compound 189, N-[4-(2-Furyl)-5-(pyridin-2-ylcarbonyl)thiazol-2-yl]-2-(1,3-thiazolidin-3-yl)acetamide]
210 to 215 °C | Cc1ccc(C(=O)Nc2nc(-c3ccco3)c(C(=O)c3ccccn3)s2)cn1 [Compound 130, N-[4-(2-Furyl)-5-(pyridin-2-ylcarbonyl)thiazol-2-yl]-2-methylpyridine-5-carboxamide]
130 to 131 °C | Cc1cnc(C(=O)Nc2nc(-c3ccco3)c(C(=O)C3CCOCC3)s2)cn1 [Compound 415, N-[4-(2-Furyl)-5-(tetrahydropyran-4-ylcarbonyl)thiazol-2-yl]-5-methylpyrazine-2-carboxamide]
176 to 183 °C | COc1cccc(C(=O)Nc2nc(-c3ccco3)c(C(=O)C3CCC(=O)CC3)s2)c1 [Compound 356, N-[4-(2-Furyl)-5-(4-oxocyclohexylcarbonyl)thiazol-2-yl]-3-methoxybenzamide]
164 to 166 °C | O=C(Nc1nc(-c2ccco2)c(C(=O)C2CCOCC2)s1)C1CCOC1 (stereo not drawn) [Compound 429, N-[4-(2-Furyl)-5-(tetrahydropyran-4-ylcarbonyl)thiazol-2-yl]tetrahydrofuran-3-carboxamide]
215 to 218 °C | O=C(CN1CCN(c2ccccn2)CC1)Nc1nc(-c2ccco2)c(C(=O)c2ccccn2)s1 [Compound 185, N-[4-(2-Furyl)-5-(pyridin-2-ylcarbonyl)thiazol-2-yl]-2-[4-(2-pyridyl)piperazin-1-yl]acetamide]
225 to 248 °C | O=C(Nc1nc(-c2ccco2)c(C(=O)c2ccccc2)s1)c1ccnnc1 [Compound 61, N-[5-Benzoyl-4-(2-furyl)thiazol-2-yl]pyridazine-4-carboxamide]
131 to 134 °C | O=C(Nc1nc(-c2ccco2)c(C(=O)C2CCOCC2)s1)c1ccccc1OC(F)(F)F [Compound 380, N-[4-(2-Furyl)-5-(tetrahydropyran-4-ylcarbonyl)thiazol-2-yl]-2-(trifluoromethoxy)benzamide]
234 to 237 °C | N#Cc1cccc(C(=O)Nc2nc(-c3ccco3)c(C(=O)c3ccccn3)s2)c1 [Compound 113, 3-Cyano-N-[4-(2-furyl)-5-(pyridin-2-ylcarbonyl)thiazol-2-yl]benzamide]
188 to 204 °C | O=C(CN1CCC2(CC1)OCCO2)Nc1nc(-c2ccco2)c(C(=O)c2ccccn2)s1 [Compound 177, 2-(1,4-Dioxa-8-azaspiro[4.5]decan-8-yl)-N-[4-(2-furyl)-5-(pyridin-2-ylcarbonyl)thiazol-2-yl]acetamide]
154 to 155 °C | CC(C)N1CCN(CC(=O)Nc2nc(-c3ccco3)c(C(=O)c3ccccn3)s2)CC1 [Compound 182, N-[4-(2-Furyl)-5-(pyridin-2-ylcarbonyl)thiazol-2-yl]-2-(4-isopropylpiperazine-1-yl)acetamide]
225 to 230 °C (dec.) | O=C(Nc1nc(-c2ccco2)c(C(=O)C2CC2)s1)c1ccncc1 [Compound 323, N-[5-(Cyclopropylcarbonyl)-4-(2-furyl)thiazol-2-yl]pyridine-4-carboxamide]
230 to 231 °C | Cn1nnc2ccc(C(=O)Nc3nc(-c4ccco4)c(C(=O)c4ccccn4)s3)cc21 [Compound 153, N-[4-(2-Furyl)-5-(pyridin-2-ylcarbonyl)thiazol-2-yl]-1-methyl-1H-benzotriazole-6-carboxamide]
288 to 290 °C | N#Cc1ccc(C(=O)Nc2nc(-c3ccco3)c(C(=O)c3cccnc3)s2)cc1 [Compound 213, 4-Cyano-N-[4-(2-furyl)-5-(pyridin-3-ylcarbonyl)thiazol-2-yl]benzamide]
231 to 234 °C | N#Cc1ccc(C(=O)Nc2nc(-c3ccco3)c(C(=O)C3CCOCC3)s2)cc1 [Compound 379, 4-Cyano-N-[4-(2-furyl)-5-(tetrahydropyran-4-ylcarbonyl)-thiazol-2-yl]benzamide]
103 to 104 °C | O=C(c1ccccn1)c1sc(NC(=O)C2COc3ccccc3O2)nc1-c1ccco1 (stereo not drawn) [Compound 119, N-[4-(2-Furyl)-5-(pyridin-2-ylcarbonyl)thiazol-2-yl]-1,4-benzodioxane-2-carboxamide]
